Laboratory results reported in patent publication US8207172B2 (Bayer Intellectual Property GmbH, priority 2004, dated 2012).
Counter-ions that a name gives are not always drawn.

Experiments:
[1] = test system: A431 cells (human epidermoid carcinoma); assay: In vitro tumor cell proliferation assay (Cell Titer-Glo luminescent cell viability), A431; format: cell-based; conditions: A-431, 72 h, 72 hours of drug exposure, ATP luminescence readout, read-out: IC50, anti-proliferative activity (inhibition of cell proliferation)
Outline: (§1)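 IC50 values reflect ATP-based luminescence (CellTiter-Glo) after 72 h compound exposure at 37°C. Both lines, A431 and BT474, were plated in RPMI with 10% FBS and received serial dilutions ranging from 100 μM to 64 pM final at 0.1% DMSO.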

[2] = test system: BT474 (human breast carcinoma); assay: In vitro tumor cell proliferation assay (Cell Titer-Glo luminescent cell viability), BT474; format: cell-based; conditions: BT-474, 72 h, BT474 cells, 72 hours of drug exposure, ATP luminescence readout, read-out: IC50, anti-proliferative activity (inhibition of cell proliferation)
Outline: as §1

IC50 [1] [µM]	IC50 [2] [µM]	Compound
≤ 50	≤ 1	O[C@H](Cn1ccnc1)Cn1ncc2c1CCc1c-2sc2ncnc(Nc3ccc(OCc4cccc(F)c4)c(Cl)c3)c12 [Example 170, (2R)-1-[6-({3-chloro-4-[(3-fluorobenzyl)oxy]phenyl}amino)-4,5-dihydro-3H-pyrimido[5′,4′:4,5]thieno[2,3-e]indazol-3-yl]-3-(1H-imidazol-1-yl)propan-2-ol trifluoroacetate (salt)]
≤ 50	≤ 1	CN(C)C[C@@H](O)Cn1ncc2c1CCc1c-2sc2ncnc(Nc3ccc(OCc4cccc(F)c4)c(Cl)c3)c12 [Example 171, (2R)-1-[6-({3-chloro-4-[(3-fluorobenzyl)oxy]phenyl}amino)-4,5-dihydro-3H-pyrimido[5′,4′:4,5]thieno[2,3-e]indazol-3-yl]-3-(dimethylamino)propan-2-ol trifluoroacetate (salt)]
≤ 50	≤ 1	OCCN(CCO)C[C@@H](O)Cn1ncc2c1CCc1c-2sc2ncnc(Nc3ccc(OCc4cccc(F)c4)c(Cl)c3)c12 [Example 172, (2R)-1-[bis(2-hydroxyethyl)amino]-3-[6-({3-chloro-4-[(3-fluorobenzyl)oxy]phenyl}amino)-4,5-dihydro-3H-pyrimido[5′,4′:4,5]thieno[2,3-e]indazol-3-yl]propan-2-ol trifluoroacetate (salt)]
≤ 5	≤ 1	COCCNC[C@@H](O)Cn1ncc2c1CCc1c-2sc2ncnc(Nc3ccc(OCc4cccc(F)c4)c(Cl)c3)c12 [Example 173, (2R)-1-[6-({3-chloro-4-[(3-fluorobenzyl)oxy]phenyl}amino)-4,5-dihydro-3H-pyrimido[5′,4′:4,5]thieno[2,3-e]indazol-3-yl]-3-[(2-methoxyethyl)amino]propan-2-ol trifluoroacetate (salt)]
≤ 50	≤ 1	CCOC(=O)Cn1cc2c(n1)CCc1c-2sc2ncnc(Nc3ccc(OCc4cccc(F)c4)c(Cl)c3)c12 [Example 174]
≤ 50	≤ 5	O=C(O)Cn1cc2c(n1)CCc1c-2sc2ncnc(Nc3ccc(OCc4cccc(F)c4)c(Cl)c3)c12 [Example 175, [6-({3-chloro-4-[(3-fluorobenzyl)oxy]phenyl}amino)-4,5-dihydro-2H-pyrimido[5′,4′:4,5]thieno[2,3-e]indazol-2-yl]acetic acid]
≤ 5	≤ 1	Fc1cccc(COc2ccc(Nc3ncnc4sc5c(c34)CCc3nn(CCN4CCNCC4)cc3-5)cc2Cl)c1 [Example 176, N-{3-chloro-4-[(3-fluorobenzyl)oxy]phenyl}-2-(2-piperazin-1-ylethyl)-4,5-dihydro-2H-pyrimido[5′,4′:4,5]thieno[2,3-e]indazol-6-amine]
≤ 5	≤ 1	CN(C)[C@H]1CCN(C(=O)Cn2cc3c(n2)CCc2c-3sc3ncnc(Nc4ccc(OCc5cccc(F)c5)c(Cl)c4)c23)C1 [Example 177, N-{3-chloro-4-[(3-fluorobenzyl)oxy]phenyl}-2-{2-[(3S)-3-(dimethylamino)pyrrolidin-1-yl]-2-oxoethyl}-4,5-dihydro-2H-pyrimido[5′,4′:4,5]thieno[2,3-e]indazol-6-amine]
≤ 50	≤ 1	O=C(Cn1cc2c(n1)CCc1c-2sc2ncnc(Nc3ccc(OCc4cccc(F)c4)c(Cl)c3)c12)NCCO [Example 178, 2-[6-({3-chloro-4-[(3-fluorobenzyl)oxy]phenyl}amino)-4,5-dihydro-2H-pyrimido[5′,4′:4,5]thieno[2,3-e]indazol-2-yl]-N-(2-hydroxyethyl)acetamide]
≤ 5	≤ 1	O=C(Cn1cc2c(n1)CCc1c-2sc2ncnc(Nc3ccc(OCc4cccc(F)c4)c(Cl)c3)c12)N1CCOCC1 [Example 179, N-{3-chloro-4-[(3-fluorobenzyl)oxy]phenyl}-2-(2-morpholin-4-yl-2-oxoethyl)-4,5-dihydro-2H-pyrimido[5′,4′:4,5]thieno[2,3-e]indazol-6-amine]
≤ 50	≤ 1	CS(=O)(=O)CCNC(=O)Cn1cc2c(n1)CCc1c-2sc2ncnc(Nc3ccc(OCc4cccc(F)c4)c(Cl)c3)c12 [Example 180, 2-[6-({3-chloro-4-[(3-fluorobenzyl)oxy]phenyl}amino)-4,5-dihydro-2H-pyrimido[5′,4′:4,5]thieno[2,3-e]indazol-2-yl]-N-[2-(methylsulfonyl)ethyl]acetamide]
≤ 5	≤ 1	CN(C)[C@@H]1CCN(C(=O)Cn2cc3c(n2)CCc2c-3sc3ncnc(Nc4ccc(OCc5cccc(F)c5)c(Cl)c4)c23)C1 [Example 181, N-{3-chloro-4-[(3-fluorobenzyl)oxy]phenyl}-2-{2-[3-(dimethylamino)pyrrolidin-1-yl]-2-oxoethyl}-4,5-dihydro-2H-pyrimido[5′,4′:4,5]thieno[2,3-e]indazol-6-amine]
≤ 5	≤ 1	CN1CCN(C(=O)Cn2cc3c(n2)CCc2c-3sc3ncnc(Nc4ccc5c(cnn5Cc5cccc(F)c5)c4)c23)CC1 [Example 182, N-[1-(3-fluorobenzyl)-1H-indazol-5-yl]-2-[2-(4-methylpiperazin-1-yl)-2-oxoethyl]-4,5-dihydro-2H-pyrimido[5′,4′:4,5]thieno[2,3-e]indazol-6-amine]

Second part, the compound before the results:

Compound	IC50 [1] [µM]	IC50 [2] [µM]
NC[C@@H](O)Cn1cc2c(n1)CCc1c-2sc2ncnc(Nc3ccc(OCc4cccc(F)c4)c(Cl)c3)c12 [Example 160, (2R)-1-amino-3-[6-({3-chloro-4-[(3-fluorobenzyl)oxy]phenyl}amino)-4,5-dihydro-2H-pyrimido[5′,4′:4,5]thieno[2,3-e]indazol-2-yl]propan-2-ol trifluoroacetate (salt)]	≤ 50	≤ 5
CC(C)CNC[C@@H](O)Cn1cc2c(n1)CCc1c-2sc2ncnc(Nc3ccc(OCc4cccc(F)c4)c(Cl)c3)c12 [Example 161, (2R)-1-[6-({3-chloro-4-[(3-fluorobenzyl)oxy]phenyl}amino)-4,5-dihydro-2H-pyrimido[5′,4′:4,5]thieno[2,3-e]indazol-2-yl]-3-(isobutylamino)propan-2-ol trifluoroacetate (salt)]	≤ 50	≤ 5
NC[C@@H](O)Cn1ncc2c1CCc1c-2sc2ncnc(Nc3ccc(OCc4cccc(F)c4)c(Cl)c3)c12 [Example 162, (2R)-1-amino-3-[6-({3-chloro-4-[(3-fluorobenzyl)oxy]phenyl}amino)-4,5-dihydro-3H-pyrimido[5′,4′:4,5]thieno[2,3-e]indazol-3-yl]propan-2-ol trifluoroacetate (salt)]	≤ 50	≤ 5
CC(C)NC[C@@H](O)Cn1ncc2c1CCc1c-2sc2ncnc(Nc3ccc(OCc4cccc(F)c4)c(Cl)c3)c12 [Example 163, (2R)-1-[6-({3-chloro-4-[(3-fluorobenzyl)oxy]phenyl}amino)-4,5-dihydro-3H-pyrimido[5′,4′:4,5]thieno[2,3-e]indazol-3-yl]-3-(isopropylamino)propan-2-ol trifluoroacetate (salt)]	≤ 50	≤ 5
COCCN(CCOC)C[C@@H](O)Cn1ncc2c1CCc1c-2sc2ncnc(Nc3ccc(OCc4cccc(F)c4)c(Cl)c3)c12 [Example 164, (2R)-1-[bis(2-methoxyethyl)amino]-3-[6-({3-chloro-4-[(3-fluorobenzyl)oxy]phenyl}amino)-4,5-dihydro-3H-pyrimido[5′,4′:4,5]thieno[2,3-e]indazol-3-yl]propan-2-ol trifluoroacetate (salt)]	≤ 50	≤ 5
O[C@H](CNCCN1CCOCC1)Cn1ncc2c1CCc1c-2sc2ncnc(Nc3ccc(OCc4cccc(F)c4)c(Cl)c3)c12 [Example 165, (2R)-1-[6-({3-chloro-4-[(3-fluorobenzyl)oxy]phenyl}amino)-4,5-dihydro-3H-pyrimido[5′,4′:4,5]thieno[2,3-e]indazol-3-yl]-3-[(2-morpholin-4-ylethyl)amino]propan-2-ol]	≤ 50	≤ 1
CNC[C@@H](O)Cn1ncc2c1CCc1c-2sc2ncnc(Nc3ccc(OCc4cccc(F)c4)c(Cl)c3)c12 [Example 166, (2R)-1-[6-({3-chloro-4-[(3-fluorobenzyl)oxy]phenyl}amino)-4,5-dihydro-3H-pyrimido[5′,4′:4,5]thieno[2,3-e]indazol-3-yl]-3-(methylamino)propan-2-ol trifluoroacetate (salt)]	≤ 50	≤ 1
CN1CCN(C[C@@H](O)Cn2ncc3c2CCc2c-3sc3ncnc(Nc4ccc(OCc5cccc(F)c5)c(Cl)c4)c23)CC1 [Example 167, (2R)-1-[6-({3-chloro-4-[(3-fluorobenzyl)oxy]phenyl}amino)-4,5-dihydro-3H-pyrimido[5′,4′:4,5]thieno[2,3-e]indazol-3-yl]-3-(4-methylpiperazin-1-yl)propan-2-ol trifluoroacetate (salt)]	≤ 50	≤ 1
CCN(CC)C[C@@H](O)Cn1ncc2c1CCc1c-2sc2ncnc(Nc3ccc(OCc4cccc(F)c4)c(Cl)c3)c12 [Example 168, (2R)-1-[6-({3-chloro-4-[(3-fluorobenzyl)oxy]phenyl}amino)-4,5-dihydro-3H-pyrimido[5′,4′:4,5]thieno[2,3-e]indazol-3-yl]-3-(diethylamino)propan-2-ol trifluoroacetate (salt)]	≤ 50	≤ 1
CCNC[C@@H](O)Cn1ncc2c1CCc1c-2sc2ncnc(Nc3ccc(OCc4cccc(F)c4)c(Cl)c3)c12 [Example 169, (2R)-1-[6-({3-chloro-4-[(3-fluorobenzyl)oxy]phenyl}amino)-4,5-dihydro-3H-pyrimido[5′,4′:4,5]thieno[2,3-e]indazol-3-yl]-3-(ethylamino)propan-2-ol trifluoroacetate (salt)]	≤ 50	≤ 1
